Source: patent US20150056166A1, “FLAVONE DERIVATIVES AND THEIR USE” (Twincore GmbH, priority 2012, published 2015)
Entries after “also recorded” stand apart in the source; their conditions may differ.

Legend:
JcR-2a virus particles = assay: Antiviral activity against early steps of HCV cell entry, synchronized JcR-2a infection (FIG. 3); type: cell-based; conditions: heparin 50 μg/ml, JS-81 2 μg/ml; inhibitor present 4 h
Description: FIG. 3: BJ486K inhibits cell entry post virus attachment. The design of the JcR-2a reporter virus construct is given at the top. Huh7-Lunet/CD81 cells were inoculated with concentrated JcR-2a particles at 4° C. for 60 minutes. Subsequently, unbound virus particles were washed away and cells were shifted to 37° C. to permit synchronized cell entry. According to the 8 experimental protocols depicted in the middle, various cell entry inhibitors including heparin (50 μg/ml), ITX5061 (10 μM), CD81-specific antibody JS-81 (2 μg/ml) and BJ486K (20 μM) were either present during inoculation (protocol 1) or were added at different time points after inoculation (protocols 2 to 8). In each case, inhibitor was present for 4 h (dashed line) and was then washed away. Efficiency of cell entry was determined 48 h post inoculation by determination of luciferase activity and is expressed relative to control infections conducted in the presence of solvent alone (DMSO). Mean values of three independent experiments each with quadruplicate measurements including the standard deviation are shown.
JcR-2a virus particles were incubated with Huh7-Lunet/CD81 cells seeded as described above for 1 h at 4° C. to synchronize cell entry. Various inhibitors including 50 μg/ml heparin (Sigma-Aldrich), CD81-specific antibody JS-81 (2 μg/ml; Becton Dickinson), ITX 5061 (10 μM) or BJ486K (20 μM), were added during virus inoculation (protocol 1) or at indicated time points after virus inoculation (protocol 2-8). After 4 h inhibitor treatment, medium was changed to fresh culture fluid without inhibitors and the cells were lysed 48 h after inoculation as described above. Efficiency of infection was determined by luciferase assay using a tube luminometer (Lumat LB9507, Berthold, Freiburg, Germany).
To resolve which step of HCV cell entry is inhibited by BJ486K, we assessed its antiviral activity when administered at different time points during the early phase of infection. To this end, Huh7-Lunet/CD81 cells were inoculated for one hour at 4° C. with a reporter virus prepared in the absence of drugs. […]

JcR-2a virus = assay: Chloroquine alone and with BJ486K, JcR-2a virus in Huh7.5 F-Luc cells; type: cell-based, HCV; conditions: chloroquine alone
Description: Result from one experiment with triplicate measurements is given. (B) Combined effects of CQ on BJ486K activity (and vice versa) were analyzed by inoculation of Huh7.5 F-Luc cells with JcR-2a virus in the presence of given drugs and determination of luciferase activity 72 h later. Results from 3 independent experiments are given.

Huh7.5 F-Luc cells = assay: Cytotoxicity of chloroquine (FIG. 11A); conditions: at the used concentrations
Jc1 = assay: HCV virus assembly/release, intra- and extracellular core protein after Jc1 RNA transfection; type: cell-based; conditions: 48 h after transfection, drugs added 4 h after transfection
Description: (A) Huh7-Lunet/CD81 cells were transfected with the subgenomic luciferase replicon depicted at the top. Drugs were added 4 h post transfection and the level of HCV RNA translation and RNA replication was quantified by luciferase assays 72 h post transfection. Mean values of three independent experiments each with quadruplicate measurements including the standard deviation are shown. (B) Cells were transfected with the Jc1 chimera depicted above and drugs were added 4 h later. HCV virus release in the presence or absence of given compounds was determined by quantification of intracellular and extracellular core protein levels using a core-specific ELISA. Mean values of three independent experiments with single measurements including the error range are given. (C) Huh7-Lunet/CD81 cells were inoculated with Luc-Jc1 reporter viruses prepared in the absence of drugs. BJ486K was added to the cells only prior to inoculation (black), only during inoculation (grey) or selectively directly after inoculation (white) as schematically depicted at the top. Infectivity was determined 72 h later by luciferase assays and compared to DMSO-treated controls. Mean values of three independent experiments each with quadruplicate measurements including the standard deviation are shown.
Huh7-Lunet/CD81 cells were transfected with Jc1 RNA and seeded on a 6-well plate. Compounds were added 4 h later. At 48 h after transfection, cell culture supernatant was harvested and used for measuring the extracellular core amount. Cells were washed once with PBS, scraped and centrifuged for 5 min at 1000×g. Cell pellets were resuspended in 500 μl fresh culture fluid and subjected to three cycles of freeze and thaw using liquid nitrogen and a 37° C. thermo block. Samples were than centrifuged at 10,000×g for 10 min to remove cell debris and the core amount was measured (intracellular core protein) using the […] […]
To determine whether BJ486K affects virus assembly or release we transfected Huh7-Lunet/CD81 cells with Jc1 RNA and quantified intra- and extracellular levels of core protein 48 h after transfection (FIG. 2B).

[1] = UV-visible spectrophotometric titration by MgCl2; type: physicochemical; conditions: high excess of Mg(II); CH3CN/H2O (1:1 by volume)
Description: FIG. 17: (A) UV-visible spectrophotometric titration of BJ486K (newly re-prepared as XM148) by MgCl2 and (B) absorption electronic spectra of the flavone BJ486K and its magnesium(II) complex BJ486K-MgCl2. Solvent: CH3CN/H2O (1:1 by volume); T=25.0° C.; l=1 cm; [BJ486K]tot=7.63×10^−5 M; (1) [MgCl2]tot/[BJ486K]tot=0; (2) [MgCl2]tot/[BJ486K]tot=185.8. To ensure solubilisation of both the flavone BJ486K (newly re-prepared as XM148) and MgCl2, a mixed solvent made of 50% of water and 50% of CH3CN was used. A stock solution of XM148 ([…] in 10 mL of argon saturated CH3CN, [XM148]tot=9.54×10^−3 M) was prepared. 160 μL of the flavone stock solution in CH3CN was diluted in 1 mL and 840 μL of Ar-saturated water and CH3CN, respectively. The absorption spectrophotometric titration (200-800 nm) was carried out by successive addition of aliquots (10 μL) of a stock solution of MgCl2 freshly prepared in water (337.6 mg in 5 mL, [MgCl2]tot=7.09×10^−3 M). […]
FIG. 18: (A) UV-visible spectrophotometric titration of XM131 (final precursor B, Scheme 2) by MgCl2. […] Absorption spectra (200-800 nm) was recorded after each addition of aliquots (10 μL) of a stock solution of MgCl2 freshly prepared in water (337.6 mg in 5 mL, [MgCl2]tot=7.09×10^−3 M). […]

[2] = system: Luc-Jc1/E2/G451R reporter viruses; assay: Resistance test, Luc-Jc1 versus Luc-Jc1/E2/G451R reporter virus; type: cell-based, HCV; conditions: Huh7-Lunet/CD81 cells, luciferase 72 h
Description: FIG. 4: BJ486K is not affected by viral resistance towards a SR-BI-targeting compound, inhibits HCV of different genotypes and prevents infection of primary human hepatocytes Huh7-Lunet/CD81 cells were inoculated with Luc-Jc1 or Luc-Jc1/E2/G451R reporter viruses in the presence of increasing doses of (A) ITX 5061 or (B) BJ486K. Cells were lysed 72 h later. Luciferase activity was determined and is expressed relative to control infections conducted in the presence of DMSO. Mean values of four independent experiments each with quadruplicate measurements including the standard deviation are shown. (C) Huh7-Lunet/CD81 cells were inoculated with genotype 1a, 1b, 2b, 3a, 4a, 5a and 6a chimeric reporter viruses in the presence of increasing doses of BJ486K. Luciferase activity was determined 72 h later and is expressed relative to infections in the presence of DMSO. Mean values of three independent experiments, each with triplicate measurements, are given. (D) Primary human hepatocytes were inoculated with Con1/C3 in the presence of DMSO or increasing concentrations of BJ486K. The inhibition of HCV infection was assessed by focus-formation assay and is expressed as % inhibition relative to DMSO-treated cells. Mean values of duplicate measurements including the error range are given. […]

## heparin [reference compound]
JcR-2a virus particles
  inhibition of HCV entry by time of addition, in words: only interfered with HCV infection when present already during inoculation

## CCN(CC)CCCC(C)Nc1ccnc2cc(Cl)ccc12 (stereo not drawn) [Chloroquine, chloroquine]
JcR-2a virus
  anti-HCV effect: dose-dependent anti-HCV effect
JcR-2a virus; listed as chloroquine
  anti-HCV effect: dose-dependent inhibition of HCV
Huh7.5 F-Luc cells
  cytotoxicity: no cytotoxicity detectable
Huh7.5 F-Luc cells; listed as chloroquine
  cytotoxicity: no cytotoxicity

## O=C1C[C@@H](c2ccc(O)cc2)Oc2cc(O)cc(O)c21 [naringenin]
Jc1
  reduction of extracellular levels of core protein: ca. 5 fold

## COc1ccc(-c2cc(=O)c3c(OC)c(O)c(OC)cc3o2)cc1 [XM131, 6-Hydroxy-5,7-dimethoxy-2-(4-methoxy-phenyl)-chromen-4-one]
[1]
  Mg(II) complexation: no absorption variation can be observed; also recorded: no Mg(II) complex is observed

## COc1c(NC(=O)C(=O)c2ccc(OCCN3CCOCC3)c3ccccc23)cc(C(C)(C)C)cc1NS(C)(=O)=O [ITX5061, reference compound]
[2]
  antiviral activity against G451R mutant compared with wild type: resistant

## C=C[C@H]1C[N@@]2CC[C@H]1C[C@@H]2[C@@H](O)c1ccnc2ccc(OC)cc12 [quinidine]
Jc1
  reduction of extracellular levels of core protein: more than 100 fold
